# Assay results taken from patent US4902720A (priority 1988, dated 1990).
# Like-named read-outs stand apart in the source and are kept apart here.
# Assays:
# [1] = tested on: RK-13, Vero cells, and WISH cells; conditions: cultures with vs without TEAC
# Procedure: To determine the toxicity level of the drug, all three cell lines--RK-13, Vero cells, and WISH cells--were used. In the toxicity experiments, the effect of the drug on the uninfected cell for a range of periods of time was determined. Accordingly, cultures were incubated with and without the drug. The time of exposure was from one to seven hours. A comparison was then made between the drug treated cultures and the control cultures. After each period of incubation, the cells were washed and fresh media was added to the cells. The cell viability was then determined by dividing these cultures and having them grow into new cell cultures.
# HSV-1 and HSV-2 = format: cell-based
# [2] = tested on: Flow 1000 cells (foreskin cells); conditions: 25 mg/ml, 48 hours, 37° C.
# Procedure: (§1) Healthy confluent monolayer cell cultures were overlaid with 1 ml of the drug and incubated for 48 hours at 37° C. and then stained. Cell cultures with maintenance media were used as controls.
# RK-13 cells = conditions: 25 mg/ml, 48 hours, 37° C.
# Procedure: as §1
# Vero cells = conditions: 25 mg/ml, 48 hours, 37° C.
# Procedure: as §1
# HSV-2 = tested on: HSV-2
# Procedure: Female guinea pigs (obtained from Charles River, Inc.) weighing approximately 200 g were used as a model for HSV-2 skin lesions. The animals were anesthetized with 0.15 ml of Ketamine-Rompum mixture. The animals were first shaved on their back with a hair clipper and then treated with a depilatory cream (Nair). The denuded area was washed well and then dried. A tuberculin tyne was washed with ethanol and air dried.
# Two methods were tried for infecting the animals with the virus. In one, a drop of HSV-2 suspension was placed on the skin and the skin was punctured with the tyne. In the second method, the tyne was dipped in the virus suspension before puncturing the skin.
# In the first experiment, each of 3 guinea pigs was infected on three areas of their backs. At 3 days post infection, treatment was begun on one side of each animal, leaving the other side untreated as a control.
# The animals were examined daily for vesicles (V), crust (C) and for erythema (R) alone.
# In the next experiment, 6 guinea pigs were infected in the same manner as the initial 3 guinea pigs. Treatment was begun 12-16 hours post infection. […] Lesions showing an erythematous base with either a blister or a crust on top were considered to be HSV specific. […] Both the control animals and treated animals were carefully read in the same manner.
# HSV-1 (McKrae strain) [3] = conditions: Virus and Drug (20 mg/ml)
# HSV-1 (McKrae strain) [4] = tested on: HSV-1 (McKrae strain)
# [5] = tested on: herpes simplex virus (HSV types 1 and 2)
compound,measurement,setting,value
"CC[N+](CC)(CC)CC.[Cl-] [TEAC, tetraethylammonium chloride]",rate of growth vs cultures without TEAC,[1],no difference in the rate of growth
same,permissiveness of cells to virus,"HSV-1 and HSV-2; TEAC added before viral inoculation, time and dosage dependent",rendered the cells non-permissive to the virus and no plaque formed
same,in vitro replication of HSV-1 and HSV-2,HSV-1 and HSV-2; summary,inhibited the in vitro replication of HSV-1 and HSV-2
same,plaque number and size,HSV-1 and HSV-2; summary,"not only by the reduced number of plaque, but also by their reduced size"
same,toxicity,[2],toxicity
same,toxicity,RK-13 cells,toxicity
same,toxicity,Vero cells,slight toxicity
same,number and size of lesions,HSV-2; TEAC from 12-16 hours P.I.,"significant reduction in the number of lesions, but also in their size"
same,rupture and crusting of lesions,HSV-2; TEAC from 12-16 hours P.I.,the lesions neither ruptured nor crusted
same,"number and appearance of lesions, treated vs control",HSV-2; TEAC ointment from 12-16 hours P.I.,"marked difference between the two groups, not only in the number of lesions but also in their appearance"
same,Percent Reduction of lesions,"HSV-2; TEAC ointment from 12-16 hours P.I., day 3 P.I.",21.0%
same,# of lesions,"HSV-2; TEAC ointment from 12-16 hours P.I., day 3 P.I., control 19",15 lesions
same,Percent Reduction of lesions,"HSV-2; TEAC ointment from 12-16 hours P.I., day 4 P.I.",27.5%
same,# of lesions,"HSV-2; TEAC ointment from 12-16 hours P.I., day 4 P.I., control 40",29 lesions
same,Percent Reduction of lesions,"HSV-2; TEAC ointment from 12-16 hours P.I., day 5 P.I.",58.5%
same,# of lesions,"HSV-2; TEAC ointment from 12-16 hours P.I., day 5 P.I., control 41",17 lesions
same,Percent Reduction of lesions,"HSV-2; TEAC ointment from 12-16 hours P.I., day 6 P.I.",58.3%
same,# of lesions,"HSV-2; TEAC ointment from 12-16 hours P.I., day 6 P.I., control 36",15 lesions
same,dermatitis (rash),"HSV-2; day 4 after treatment, TEAC or its vehicle or both",a rash appeared
same,change in the morphology of the cells,"Vero and WISH cells; 5 mg, 2.5 mg and 1.25 mg TEAC per culture, overnight",No change in the morphology of the cells
same,growth or general appearance vs untreated controls,"Vero and WISH cells; after wash, additional 24 hours in fresh medium",no apparent difference in the growth or general appearance
same,"cells exhibiting CPE, area of infection per field","HSV-1 (McKrae strain) [3]; 6 hours P.I., virus control 1/4",1/6
same,"cells exhibiting CPE, area of infection per field","HSV-1 (McKrae strain) [3]; 30 hours P.I., virus control 1/2",scattered
same,number of cells containing intranuclear dense bodies vs control,HSV-1 (McKrae strain) [4]; 6 hours post infection,no striking difference
same,No. of cells with internuclear dense bodies,"HSV-1 (McKrae strain) [4]; TEAC treated, 24 hours P.I., 300 cells examined, control 0 of 50",12
same,No. of cells with virus particles,"HSV-1 (McKrae strain) [4]; TEAC treated, 24 hours P.I., 300 cells examined, control 50 of 50",8
same,Total %,"HSV-1 (McKrae strain) [4]; TEAC treated, 24 hours P.I., control 100%",6%
same,size of nucleocapsids,"HSV-1 (McKrae strain) [4]; TEAC-treated cells, 24 hours post infection",about 99.6 A
same,appearance of cell layers,vaccinia,thin
same,plaque,vaccinia,did not have any plaque
same,sciatic pain,"HSV type 2; Patient A, 2.8 cc (100 mg/cc), first infusion, immediately after",cessation of sciatic pain
same,pain or lesions,"HSV type 2; Patient A, about five weeks after third infusion 3.4 cc",no further pain or lesions
same,time without lesions or pain,"HSV type 2; Patient A, after first infusion",52 to 53 days
same,time until spots were gone,"HSV type 2; Patient A, after third infusion",24 h
same,symptoms,"HSV type 2; Patient A, approximately three weeks after first infusion",asymptomatic
same,lesions or pain at last contact,"HSV type 2; Patient A, eighteen months after the initial exam",no further lesions or pain
same,time to disappearance of vesicles,"HSV type 2; Patient A, recurrence after first infusion",two to three
same,sciatic nerve pain,"HSV type 2; Patient A, second infusion 3.2 cc",sciatic nerve pain disappeared during the infusion
same,clearance,"HSV type 2; Patient E, a week after second infusion, 2 pinpoint lesions remaining",99%
same,new pinpoint lesions,"HSV type 2; Patient E, after third infusion",5-6 pinpoint lesions
same,lesions,"HSV type 2; Patient E, third infusion 5 cc, 5 days later",all lesions had cleared up
same,general condition,"HSV type 2; Patient F, about 3 weeks after third infusion",completely cleared up
same,lesion,"HSV type 2; Patient F, first infusion 3.8 cc, next day",improved
same,time to clearing of lesion,"HSV type 2; Patient F, second infusion 4.5 cc",48 h
same,time to clearing of lesions,"HSV type 2; Patient F, third infusion 4.0 cc",≤ 4 days
same,time until lesions were gone,"HSV type 2; Patient G, first infusion 4.3 cc",≤ 48 h
same,long term outcome,"HSV type 2; Patient J, 12 months later, ointment",the problem has resolved itself completely
same,severity of subsequent attacks,"HSV type 2; Patient K, after second infusion",milder severity
same,anticipated massive attack,"HSV type 2; Patient K, second infusion 3.4 cc, six weeks later",the attack had not occurred
same,crusting,"HSV type 1; Patient L, 2.9 cc (5.5 mg/kg), 7th day after treatment",the crusting had all disappeared
same,time to clearing of lesions,"HSV type 1; Patient M, 1% TEAC in hydrophillic ointment base, topical, five days later",cleared in a shorter time period than usual
same,lesion,"HSV type 1; Patient M, ointment resumed two months later, after three days",the lesion had not spread and had now crusted
same,attacks,"[5]; Patient B, about a month after report on fourth infusion",no more attacks
same,recurrences,"[5]; Patient B, after third infusion",recurrences were not eliminated
same,resolution of oral lesions,"[5]; Patient B, first infusion 3.7 cc (5 mg/kg)",resolution occurring in a shorter than usual time
same,value of last treatment,"[5]; Patient B, fourth infusion 4.8 cc",of no value
same,aura and expected labial lesion,"[5]; Patient B, second infusion 3.7 cc, following day",absence of an aura and no occurrence of the expected lesion except for a very small lesion at the corner of the mouth
same,time to disappearance of penile lesion,"[5]; Patient B, third infusion 4.5 cc",2 to 3 days
same,long term outcome,"[5]; Patient C, five months and ten months after initial treatment",no further problems
same,infection,"[5]; Patient I, first infusion 4.7 cc, four to five days later",they were all clear
same,time to clearing of lesion,"[5]; Patient I, second infusion 4.75 cc (5.5 mg/kg)",3 days
same,nocturnal headaches,"[5]; Patient I, three months after second infusion",no further nocturnal headaches
same,drug related effects,"Patient A, 2.8 cc infusion",some blurred vision and slight dizziness on rising to the seated position
same,drug related effects,"Patient A, 3.2 cc infusion",some blurred vision
same,drug related effects,"Patient B, 3.7 cc (5 mg/kg) infusion","blurred vision, dryness of the mouth, and unsteady gait"
same,time to cessation of drug related effects,"Patient B, after cessation of infusion",10 to 15 min
same,drug related effects,"Patient C, 3.85 cc (5 mg/kg)",slightly blurred vision
same,drug related effects,"Patient D, 2.8 cc (5 mg/kg)",dry mouth and transient blurred vision
same,drug related effects,"Patient E, 4.8 cc (5 mg/kg)",slightly blurred vision
same,drug related effects,"Patient J, 3.6 cc (5.5 mg/kg)",some blurred vision
same,drug related effects,"Patient K, 3.1 cc and 3.4 cc",some blurred vision
same,drug related effects,"Patient L, 2.9 cc (5.5 mg/kg)",some blurred vision
same,time patient felt badly following treatment,"Patient L, 2.9 cc (5.5 mg/kg)",24 to 36 h
